Assay results: US12344621B2, “CGRP antagonist compounds” (Nxera Pharma UK Limited, priority 2019, dated 2025)
Like-named read-outs stand apart in the source and are kept apart here. Blank lines part the entries; values can stand above or below the molecule they belong to.

Key:
human CGRP receptor = target: T1, human CGRP receptor (Homo sapiens, UniProt O60894+Q16602); experiment: cAMP functional assay (HTRF cAMP dynamic-2) in SK-N-MC cells; format: cell-based; conditions: SK-N-MC cells endogenously expressing human CGRP receptor; challenge with EC80 human CGRP (0.3 nM); functional pKb converted from pIC50 by modified Cheng-Prussoff equation
T1 construct: SK-N-MC endogenously expressing the human CGRP receptor; endogenous in cells; host or cells: SK-N-MC human neuroblastoma cells
T1 sequence (Q16602 23-461): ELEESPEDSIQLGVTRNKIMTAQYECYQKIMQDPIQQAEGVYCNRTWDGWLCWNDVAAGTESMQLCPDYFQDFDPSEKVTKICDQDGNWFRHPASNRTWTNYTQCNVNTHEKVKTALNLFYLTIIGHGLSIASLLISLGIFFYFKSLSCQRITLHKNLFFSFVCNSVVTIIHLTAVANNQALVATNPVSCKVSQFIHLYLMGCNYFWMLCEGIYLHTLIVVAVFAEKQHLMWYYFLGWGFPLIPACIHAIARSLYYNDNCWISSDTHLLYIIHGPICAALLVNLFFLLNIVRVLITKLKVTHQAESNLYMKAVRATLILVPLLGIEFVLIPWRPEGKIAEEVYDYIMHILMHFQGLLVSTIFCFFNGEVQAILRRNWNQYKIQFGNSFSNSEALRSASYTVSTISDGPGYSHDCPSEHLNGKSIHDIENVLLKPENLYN
T1 sequence (O60894 27-148): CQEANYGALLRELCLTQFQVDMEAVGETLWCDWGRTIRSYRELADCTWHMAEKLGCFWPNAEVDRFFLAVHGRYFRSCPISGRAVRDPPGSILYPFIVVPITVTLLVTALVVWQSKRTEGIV
Description: Biological Activity cAMP Functional Assay
cAMP production following receptor activation was determined using the Homogeneous Time-Resolved Fluorescence (HTRF) cAMP dynamic-2 assay (Cisbio, France). The human neuroblastoma cell line SK-N-MC endogenously expressing the human CGRP receptor was seeded at a density of 12,500 cells/well in solid walled 96 well half area plates (Costar, Catalog Number 3688, Corning Life Sciences, Germany). After 16 h incubation at 37° C. media was removed and cells were incubated at 37° C. for 30 min in serum free media containing 500 μM IBMX (Tocris, Abingdon, UK, Catalog Number 2845) and increasing concentrations of test antagonist. Following this cells were challenged with an EC80 concentration of human CGRP (0.3 nM) for a further 30 min at 37° C. and then cAMP production was determined as manufacturer's instructions before plates were read on a PheraStar fluorescence plate reader (BMG LabTech, Germany). IC50 values were derived from the inhibition curve. The pIC50 values (where pIC50=−log 10 IC50) were converted to a functional pKb value using a modified Cheng-Prussoff equation where Kd=agonist EC50 and L hot=agonist challenge concentration. The pKb values of certain compounds of the invention are detailed in Table 4.

[1] = amide bond
[2] = amide bond; remark: listed apart in the source

- Kb (human CGRP receptor): 1.26 nM
Compound: Cc1cc(C[C@H]2OC(=O)N3CCC4(CC3)OC(=O)Nc3ncc(cc34)/C=C/COCCOCCN(C)C2=O)cc2cn[nH]c12 [Example 7-1, (7R,17E)-9-methyl-7-[(7-methyl-1H-indazol-5-yl)methyl]-6,12,15,25-tetraoxa-4,9,21,23-tetrazatetracyclo[17.6.2.21,4.022,26]nonacosa-17,19(27),20,22(26)-tetraene-5,8,24-trione]
- ring closure, yield of all isomers ([1]; from CNCCOCCOC/C=C/c1cnc2c(c1)C1(CCN(C(=O)O[C@H](Cc3cc(C)c4[nH]ncc4c3)C(=O)O)CC1)OC(=O)N2, PyAOP, DMF, 3.76 mM, 0.67 h): 50%
- ring closure, isolated yield ([2]; from CNCCOCCOC/C=C/c1cnc2c(c1)C1(CCN(C(=O)O[C@H](Cc3cc(C)c4[nH]ncc4c3)C(=O)O)CC1)OC(=O)N2, 21-membered ring, PyAOP/DIEA, DMF, 3.8 mM, 0.67 h): 50%

- Kb (human CGRP receptor): 0.2 nM
Compound: Cc1cc(C[C@H]2OC(=O)c3cnc4c(c3)C[C@@]3(C4)C(=O)Nc4ncc(cc43)/C=C/COCCOCCN(C)C2=O)cc2cn[nH]c12 [Example 4-1, (1S,10R,20E)-12-methyl-10-[(7-methyl-1H-indazol-5-yl)methyl]-9,15,18-trioxa-5,12,24,26-tetrazapentacyclo[20.5.2.11,4.13,7.025,28]hentriaconta-3,5,7(30),20,22(29),23,25(28)-heptaene-8,11,27-trione]
- ring closure, yield of all isomers ([1]; from CNCCOCCOC/C=C/c1cnc2c(c1)[C@@]1(Cc3cc(C(=O)O[C@H](Cc4cc(C)c5[nH]ncc5c4)C(=O)O)cnc3C1)C(=O)N2, HATU, DMA, 5.0 mM, 0.08 h): 62%
- ring closure, isolated yield ([2]; from CNCCOCCOC/C=C/c1cnc2c(c1)[C@@]1(Cc3cc(C(=O)O[C@H](Cc4cc(C)c5[nH]ncc5c4)C(=O)O)cnc3C1)C(=O)N2, 22-membered ring, HATU/DIEA, DMA, 5.0 mM, 0.08 h): 62%

- Kb (human CGRP receptor): 0.0126 nM
Compound: Cc1cc(C[C@H]2NC(=O)c3cnc4c(c3)C[C@@]3(C4)C(=O)Nc4ncc(cc43)/C=C/CCCCCCCN(C)C2=O)cc2cn[nH]c12 [Example 1-5, (1S,10R,20E)-12-methyl-10-[(7-methyl-1H-indazol-5-yl)methyl]-5,9,12,24,26-pentazapentacyclo[20.5.2.11,4.13,7.025,28]hentriaconta-3,5,7(30),20,22(29),23,25(28)-heptaene-8,11,27-trione]
- ring closure, yield of all isomers ([1]; from CNCCCCCCC/C=C/c1cnc2c(c1)[C@@]1(Cc3cc(C(=O)N[C@H](Cc4cc(C)c5[nH]ncc5c4)C(=O)O)cnc3C1)C(=O)N2, HATU, DMF, 3.04 mM): 34.8%
- ring closure, isolated yield ([2]; from CNCCCCCCC/C=C/c1cnc2c(c1)[C@@]1(Cc3cc(C(=O)N[C@H](Cc4cc(C)c5[nH]ncc5c4)C(=O)O)cnc3C1)C(=O)N2, 22-membered ring, HATU/DIEA, DMF, 3.0 mM): 34.8%

- Kb (human CGRP receptor): 0.0126 nM
Compound: Cc1cc(C[C@H]2NC(=O)c3cnc4c(c3)C[C@@]3(C4)C(=O)Nc4ncc(cc43)/C=C/COCCCCCN(C)C2=O)cc2cn[nH]c12 [Example 1-6, (1S,10R,20E)-12-methyl-10-[(7-methyl-1H-indazol-5-yl)methyl]-18-oxa-5,9,12,24,26-pentazapentacyclo[20.5.2.11,4.13,7.025,28]hentriaconta-3,5,7(30),20,22(29),23,25(28)-heptaene-8,11,27-trione]
- ring closure, yield of all isomers ([1]; from CNCCCCCOC/C=C/c1cnc2c(c1)[C@@]1(Cc3cc(C(=O)N[C@H](Cc4cc(C)c5[nH]ncc5c4)C(=O)O)cnc3C1)C(=O)N2, HATU, DMF, 3.68 mM, 0.03 h): 58.9%
- ring closure, isolated yield ([2]; from CNCCCCCOC/C=C/c1cnc2c(c1)[C@@]1(Cc3cc(C(=O)N[C@H](Cc4cc(C)c5[nH]ncc5c4)C(=O)O)cnc3C1)C(=O)N2, 22-membered ring, HATU/DIEA, DMF, 3.7 mM, 0.03 h): 58.9%

- Kb (human CGRP receptor): 0.501 nM
Compound: Cc1cc(C[C@H]2NC(=O)N3CCC4(CC3)OC(=O)Nc3ncc(cc34)/C=C/COCCOCCN(C)C2=O)cc2cn[nH]c12 [Example 6-1, (7R,17E)-9-methyl-7-[(7-methyl-1H-indazol-5-yl)methyl]-12,15,25-trioxa-4,6,9,21,23-pentazatetracyclo[17.6.2.21,4.022,26]nonacosa-17,19(27),20,22(26)-tetraene-5,8,24-trione]
- ring closure, yield of all isomers ([1]; from CNCCOCCOC/C=C/c1cnc2c(c1)C1(CCN(C(=O)N[C@H](Cc3cc(C)c4[nH]ncc4c3)C(=O)O)CC1)OC(=O)N2, PyAOP, DMF, 3.08 mM, 25.0 °C, 0.5 h): 45%
- ring closure, isolated yield ([2]; from CNCCOCCOC/C=C/c1cnc2c(c1)C1(CCN(C(=O)N[C@H](Cc3cc(C)c4[nH]ncc4c3)C(=O)O)CC1)OC(=O)N2, 21-membered ring, PyAOP/DIEA, DMF, 3.1 mM, 25.0 °C, 0.5 h): 45%

- Kb (human CGRP receptor): 0.251 nM
Compound: Cc1cc(C[C@H]2NC(=O)c3cnc4c(c3)C[C@@]3(C4)C(=O)Nc4ncc(cc43)/C=C/COCCOCCN(C)C2=O)cc2cn[nH]c12 [Example 1-1, (1S,10R,20E)-12-methyl-10-[(7-methyl-1H-indazol-5-yl)methyl]-15,18-dioxa-5,9,12,24,26-pentazapentacyclo[20.5.2.11,4.13,7.025,28]hentriaconta-3,5,7(30),20,22(29),23,25(28)-heptaene-8,11,27-trione]
- ring closure, yield of all isomers ([1]; from CNCCOCCOC/C=C/c1cnc2c(c1)[C@@]1(Cc3cc(C(=O)N[C@H](Cc4cc(C)c5[nH]ncc5c4)C(=O)O)cnc3C1)C(=O)N2, HATU, DMA, 6.6 mM, 0.25 h): 51%
- ring closure, isolated yield ([2]; from CNCCOCCOC/C=C/c1cnc2c(c1)[C@@]1(Cc3cc(C(=O)N[C@H](Cc4cc(C)c5[nH]ncc5c4)C(=O)O)cnc3C1)C(=O)N2, 22-membered ring, HATU/DIEA, DMA, 6.6 mM, 0.25 h): 51%
